In ChEMBL document CHEMBL5257059, “Pyridine-Based 1,2,4-Triazolo-Tethered Indole Conjugates Potentially Affecting TNKS and PI3K in Colorectal Cancer” (ACS Med Chem Lett, 2023):
Calls of active or inactive are those of the source.

What was measured:
HT-29 [1] = assay: Inhibition of GSK-3beta protein expression in human HT-29 cells at 2 uM incubated for 72 hrs by Western blot analysis; assay type: functional, cell-based
HT-29 [2] = assay: Inhibition of phosphorylated GSK-3beta protein expression in human HT-29 cells at 2 uM incubated for 72 hrs by Western blot analysis; assay type: functional, cell-based
HT-29 [3] = assay: Inhibition of TAB-182 protein expression in human HT-29 cells at 1 uM incubated for 72 hrs by Western blot analysis; assay type: functional, cell-based
HT-29 [4] = assay: Inhibition of pan-AKT protein expression in human HT-29 cells at 1 uM incubated for 72 hrs by Western blot analysis; assay type: functional, cell-based
HT-29 [5] = assay: Downregulation of TAB-182 protein expression in human HT-29 cells at 1 uM by immunostaining based confocal microscopic analysis; assay type: functional, cell-based
[6] = molecular target: T1, Catenin beta-1 (Homo sapiens) (UniProt P35222); assay: Inhibition of beta-catenin phosphorylation in human HT-29 cells at 1 uM incubated for 72 hrs by Western blot analysis; assay type: cell-based
T1 sequence (whole entry): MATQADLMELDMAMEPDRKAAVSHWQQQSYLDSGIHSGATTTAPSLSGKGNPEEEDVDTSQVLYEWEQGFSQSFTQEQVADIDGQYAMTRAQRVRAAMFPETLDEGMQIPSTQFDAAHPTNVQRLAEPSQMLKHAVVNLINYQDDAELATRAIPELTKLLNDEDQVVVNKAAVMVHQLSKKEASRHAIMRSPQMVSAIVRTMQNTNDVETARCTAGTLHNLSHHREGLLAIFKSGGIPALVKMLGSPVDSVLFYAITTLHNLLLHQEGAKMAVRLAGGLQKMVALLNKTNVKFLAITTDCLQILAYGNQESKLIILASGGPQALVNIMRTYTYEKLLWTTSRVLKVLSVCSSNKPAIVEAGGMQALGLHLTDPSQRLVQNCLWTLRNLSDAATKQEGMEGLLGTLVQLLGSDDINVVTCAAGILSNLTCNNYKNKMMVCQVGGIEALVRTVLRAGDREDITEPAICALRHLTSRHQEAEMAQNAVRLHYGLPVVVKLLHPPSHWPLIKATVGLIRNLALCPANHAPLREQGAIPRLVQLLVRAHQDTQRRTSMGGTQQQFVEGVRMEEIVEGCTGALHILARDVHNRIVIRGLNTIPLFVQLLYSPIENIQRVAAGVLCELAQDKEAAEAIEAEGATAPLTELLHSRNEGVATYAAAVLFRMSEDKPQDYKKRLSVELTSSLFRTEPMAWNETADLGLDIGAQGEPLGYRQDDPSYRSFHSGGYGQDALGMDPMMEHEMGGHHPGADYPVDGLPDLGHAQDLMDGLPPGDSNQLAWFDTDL

Fc1ccccc1-n1c(SCCc2c[nH]c3ccccc23)nnc1-c1ccncc1
active: inhibition (HT-29 [1]) | inhibition (HT-29 [2])

COc1ccc(-n2c(SCCc3c[nH]c4ccccc34)nnc2-c2ccncc2)cc1
active: inhibition (HT-29 [3]) | inhibition (HT-29 [4]) | Activity (HT-29 [5]) | inhibition [6]
